#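 Growth conditions: 96-well plates. Treatment: test compound, 48 hours, 5 concentrations. Analysis: linear interpolation between bracketing concentrations; unreached endpoints set to highest concentration. GI50 is the concentration that inhibits growth by half. TGI marks complete inhibition of growth.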
# What was measured:
# Experiment in all cases: NCI anticancer screen, dose series, 48 h
# SR leukemia = tested on: SR leukemia
# HOP-18 NSCLC = tested on: HOP-18 NSCLC
# HOP-62 NSCLC = tested on: HOP-62 NSCLC
# MCF7 breast = tested on: MCF7 breast
# LOX IMVI melanoma = tested on: LOX IMVI melanoma
# SNB-75 CNS = tested on: SNB-75 CNS
# UACC-62 melanoma = tested on: UACC-62 melanoma
# NCI-H23 lung = tested on: NCI-H23 lung
# SNB-19 CNS = tested on: SNB-19 CNS
# HL-60(TB) leukemia = tested on: HL-60(TB) leukemia
# BT-549 breast = tested on: BT-549 breast
# KM12 colon = tested on: KM12 colon
# SK-MEL-2 melanoma = tested on: SK-MEL-2 melanoma
# DU-145 prostate = tested on: DU-145 prostate
# NCI/ADR-RES ovarian = tested on: NCI/ADR-RES ovarian
# KM20L2 colon = tested on: KM20L2 colon
# SK-MEL-28 melanoma = tested on: SK-MEL-28 melanoma
# NCI-H522 lung = tested on: NCI-H522 lung
# MDA-MB-231 breast = tested on: MDA-MB-231 breast
# OVCAR-3 ovarian = tested on: OVCAR-3 ovarian
# LXFL 529 NSCLC = tested on: LXFL 529 NSCLC
# CCRF-CEM leukemia = tested on: CCRF-CEM leukemia
# MDA-MB-435 = tested on: MDA-MB-435
# OVCAR-8 ovarian = tested on: OVCAR-8 ovarian
# NCI-H226 lung = tested on: NCI-H226 lung
# COLO 205 colon = tested on: COLO 205 colon
# SK-OV-3 ovarian = tested on: SK-OV-3 ovarian
# MALME-3M melanoma = tested on: MALME-3M melanoma
# SN12C renal = tested on: SN12C renal
# HCT-116 colon = tested on: HCT-116 colon
# MOLT-4 leukemia = tested on: MOLT-4 leukemia
# ACHN renal = tested on: ACHN renal
# MDA-N = tested on: MDA-N
# SNB-78 CNS = tested on: SNB-78 CNS
# 786-0 renal = tested on: 786-0 renal
# HOP-92 NSCLC = tested on: HOP-92 NSCLC
# M14 melanoma = tested on: M14 melanoma
# SK-MEL-5 melanoma = tested on: SK-MEL-5 melanoma
# T-47D breast = tested on: T-47D breast
# RPMI-8226 leukemia = tested on: RPMI-8226 leukemia
# CAKI-1 renal = tested on: CAKI-1 renal
# SF-539 CNS = tested on: SF-539 CNS
# A498 renal = tested on: A498 renal
# HT29 colon = tested on: HT29 colon
# U251 CNS = tested on: U251 CNS
# HCC-2998 colon = tested on: HCC-2998 colon
# K-562 leukemia = tested on: K-562 leukemia
# OVCAR-5 ovarian = tested on: OVCAR-5 ovarian
# DMS 114 small cell lung = tested on: DMS 114 small cell lung
# A549 NSCLC = tested on: A549 NSCLC
# UACC-257 melanoma = tested on: UACC-257 melanoma
# DLD-1 colon = tested on: DLD-1 colon
# PC-3 prostate = tested on: PC-3 prostate
# RXF 393 renal = tested on: RXF 393 renal
# UO-31 renal = tested on: UO-31 renal
# SF-295 CNS = tested on: SF-295 CNS
# HS 578T breast = tested on: HS 578T breast
# SW-620 colon = tested on: SW-620 colon
# IGROV1 ovarian = tested on: IGROV1 ovarian
# HCT-15 colon = tested on: HCT-15 colon
# TK-10 renal = tested on: TK-10 renal
# OVCAR-4 ovarian = tested on: OVCAR-4 ovarian
# NCI-H460 lung = tested on: NCI-H460 lung
# SF-268 CNS = tested on: SF-268 CNS
# EKVX NSCLC = tested on: EKVX NSCLC
# M19-MEL melanoma = tested on: M19-MEL melanoma
compound,measurement,setting,value
CN(C)CCNc1ccc2nnn3c4ccc(O)cc4c(=O)c1c23,TGI,SR leukemia,16.4 µM
same,TGI,HOP-18 NSCLC,50.5 µM
same,TGI,HOP-62 NSCLC,17.2 µM
same,TGI,MCF7 breast,16 µM
same,TGI,LOX IMVI melanoma,6.41 µM
same,TGI,SNB-75 CNS,32.1 µM
same,TGI,UACC-62 melanoma,19.7 µM
same,TGI,NCI-H23 lung,17.3 µM
same,TGI,SNB-19 CNS,31.8 µM
same,TGI,HL-60(TB) leukemia,23.6 µM
same,TGI,BT-549 breast,28.5 µM
same,TGI,KM12 colon,13.5 µM
same,TGI,SK-MEL-2 melanoma,22.6 µM
same,TGI,DU-145 prostate,18.6 µM
same,TGI,NCI/ADR-RES ovarian,12.6 µM
same,TGI,KM20L2 colon,22.7 µM
same,TGI,SK-MEL-28 melanoma,23.4 µM
same,TGI,NCI-H522 lung,18.8 µM
same,TGI,MDA-MB-231 breast,4.81 µM
same,TGI,OVCAR-3 ovarian,27.8 µM
same,TGI,LXFL 529 NSCLC,19 µM
same,TGI,CCRF-CEM leukemia,32.9 µM
same,TGI,MDA-MB-435,17.1 µM
same,TGI,OVCAR-8 ovarian,16.8 µM
same,TGI,NCI-H226 lung,23.6 µM
same,TGI,COLO 205 colon,18.2 µM
same,TGI,SK-OV-3 ovarian,29.7 µM
same,TGI,MALME-3M melanoma,19.5 µM
same,TGI,SN12C renal,23.9 µM
same,TGI,HCT-116 colon,13.5 µM
same,TGI,MOLT-4 leukemia,9.56 µM
same,TGI,ACHN renal,26.1 µM
same,TGI,MDA-N,15 µM
same,TGI,SNB-78 CNS,31.7 µM
same,TGI,786-0 renal,15.4 µM
same,TGI,HOP-92 NSCLC,26.5 µM
same,TGI,M14 melanoma,21.2 µM
same,TGI,SK-MEL-5 melanoma,12.2 µM
same,TGI,T-47D breast,27.1 µM
same,TGI,RPMI-8226 leukemia,24.6 µM
same,TGI,CAKI-1 renal,20 µM
same,TGI,SF-539 CNS,15.6 µM
same,TGI,A498 renal,12.1 µM
same,TGI,HT29 colon,16.1 µM
same,TGI,U251 CNS,16.2 µM
same,TGI,HCC-2998 colon,19.6 µM
same,TGI,K-562 leukemia,> 37700 nM
same,TGI,OVCAR-5 ovarian,19.9 µM
same,TGI,DMS 114 small cell lung,20.9 µM
same,TGI,A549 NSCLC,13 µM
same,TGI,UACC-257 melanoma,22.2 µM
same,TGI,DLD-1 colon,22.7 µM
same,TGI,PC-3 prostate,12.1 µM
same,TGI,RXF 393 renal,14.3 µM
same,TGI,UO-31 renal,13.8 µM
same,TGI,SF-295 CNS,15.3 µM
same,TGI,HS 578T breast,11.5 µM
same,TGI,SW-620 colon,15.6 µM
same,TGI,IGROV1 ovarian,17.2 µM
same,TGI,HCT-15 colon,13.4 µM
same,TGI,TK-10 renal,31.9 µM
same,TGI,OVCAR-4 ovarian,9.63 µM
same,TGI,NCI-H460 lung,11.4 µM
same,TGI,SF-268 CNS,20.7 µM
same,TGI,EKVX NSCLC,18.5 µM
CC[N-]c1nnnn1CC.[Au+].c1ccc([PH+](c2ccccc2)c2ccccc2)cc1,GI50,HOP-18 NSCLC,1820 nM
same,TGI,HOP-18 NSCLC,3.23 µM
same,GI50,HOP-62 NSCLC,2070 nM
same,TGI,HOP-62 NSCLC,3.72 µM
same,GI50,LOX IMVI melanoma,1450 nM
same,TGI,LOX IMVI melanoma,2.93 µM
same,TGI,M19-MEL melanoma,4.24 µM
same,GI50,SNB-75 CNS,1350 nM
same,TGI,SNB-75 CNS,3.46 µM
same,GI50,UACC-62 melanoma,1200 nM
same,TGI,UACC-62 melanoma,3.18 µM
same,GI50,NCI-H23 lung,1390 nM
same,TGI,NCI-H23 lung,3.01 µM
same,GI50,SNB-19 CNS,1440 nM
same,TGI,SNB-19 CNS,2.76 µM
same,GI50,HL-60(TB) leukemia,187 nM
same,TGI,HL-60(TB) leukemia,0.68 µM
same,GI50,KM12 colon,2930 nM
same,TGI,KM12 colon,11.6 µM
same,GI50,SK-MEL-2 melanoma,1140 nM
same,TGI,SK-MEL-2 melanoma,2.39 µM
same,GI50,KM20L2 colon,2000 nM
same,TGI,KM20L2 colon,12.9 µM
same,GI50,SK-MEL-28 melanoma,677 nM
same,TGI,SK-MEL-28 melanoma,2.16 µM
same,GI50,OVCAR-3 ovarian,1760 nM
same,TGI,OVCAR-3 ovarian,3.15 µM
same,GI50,LXFL 529 NSCLC,723 nM
same,TGI,LXFL 529 NSCLC,2.04 µM
same,GI50,OVCAR-8 ovarian,1570 nM
same,TGI,OVCAR-8 ovarian,3.07 µM
same,GI50,NCI-H226 lung,1440 nM
same,TGI,NCI-H226 lung,3.2 µM
same,GI50,COLO 205 colon,2190 nM
same,TGI,COLO 205 colon,5.4 µM
same,GI50,SK-OV-3 ovarian,4.95 µM
same,TGI,SK-OV-3 ovarian,9.98 µM
same,GI50,MALME-3M melanoma,1240 nM
same,TGI,MALME-3M melanoma,2.55 µM
same,GI50,SN12C renal,1650 nM
same,TGI,SN12C renal,3.26 µM
same,GI50,HCT-116 colon,1550 nM
same,TGI,HCT-116 colon,2.9 µM
same,GI50,MOLT-4 leukemia,716 nM
same,TGI,MOLT-4 leukemia,3.74 µM
same,GI50,ACHN renal,1620 nM
same,TGI,ACHN renal,3.02 µM
same,GI50,SNB-78 CNS,2500 nM
same,TGI,SNB-78 CNS,> 100 µM
same,GI50,786-0 renal,1370 nM
same,TGI,786-0 renal,2.67 µM
same,GI50,M14 melanoma,1290 nM
same,TGI,M14 melanoma,2.79 µM
same,GI50,SK-MEL-5 melanoma,811 nM
same,TGI,SK-MEL-5 melanoma,2.22 µM
same,GI50,RPMI-8226 leukemia,568 nM
same,TGI,RPMI-8226 leukemia,4.48 µM
same,GI50,SF-539 CNS,2100 nM
same,TGI,SF-539 CNS,5.79 µM
same,GI50,U251 CNS,1960 nM
same,TGI,U251 CNS,6.48 µM
same,GI50,HCC-2998 colon,1680 nM
same,TGI,HCC-2998 colon,3.15 µM
same,GI50,K-562 leukemia,342 nM
same,TGI,K-562 leukemia,1910 nM
same,GI50,OVCAR-5 ovarian,4.5 µM
same,TGI,OVCAR-5 ovarian,9.16 µM
same,GI50,A549 NSCLC,4.93 µM
same,TGI,A549 NSCLC,> 53.5 µM
same,GI50,UACC-257 melanoma,1270 nM
same,TGI,UACC-257 melanoma,2.72 µM
same,GI50,RXF 393 renal,242 nM
same,TGI,RXF 393 renal,0.801 µM
same,GI50,UO-31 renal,1660 nM
same,TGI,UO-31 renal,3.14 µM
same,GI50,SF-295 CNS,3.09 µM
same,TGI,SF-295 CNS,10 µM
same,GI50,IGROV1 ovarian,2260 nM
same,TGI,IGROV1 ovarian,5.96 µM
same,GI50,TK-10 renal,1660 nM
same,TGI,TK-10 renal,3.07 µM
same,GI50,NCI-H460 lung,3.71 µM
same,TGI,NCI-H460 lung,> 20.7 µM
same,GI50,EKVX NSCLC,1700 nM
same,TGI,EKVX NSCLC,4.04 µM

# Reference: PubChem BioAssay (NCI)
